Data set [1] is described as follows: body weights of rats after 90 days of treatment. It is filed as in vivo, rat. The method, then: (§1) Statistical analyses were performed using SPSS software version 21.00. One-way analysis of variance (ANOVA), post-hoc and least significant difference (LSD) were performed for intergroup comparisons. P>0.05, P≤0.05, and P≤0.001 were considered non-significant, significant, and highly significant, respectively.

Data set [2] has as its system testes. The data set is described as follows: testes weights of rats after 90 days of treatment. The class given is in vivo, rat. Particulars: vs control group GI. On the procedure: as §1
The nature of data set [3]: plasma levels of testosterone of rats after 90 days of treatment. The class given is in vivo, rat. On the procedure: as §1
In data set [4] the test system is testis of the rats. The data set is described as follows: histological examination of the rat testis (light microscopy, hematoxylin-eosin). As to conditions: 90 days.
Protocol: The experiments in the Examples were conducted on 30 male albino rats of the Wister strain with an age range of 40-45 days (approximately 6 weeks) and a weight range of 68-122 g. […] The rats were provided feed and water, and bred in a private room with a temperature of 24±2° C., a relative humidity of 55±5%, and a 12-hour light/12-hour dark cycle.
The first treatment group (GI) was a control treatment group composed of 5 rats that were given distilled water orally throughout the experiment.
The second treatment group (GII) was composed of 5 rats that were orally administered with only the root extract of Costus speciosus at a dose of 2 mg/kg body weight/day.
The third treatment group (GIII) was composed of 5 rats that were orally administered with risperidone at a low dose of 1 mg/kg body weight/day.
The fourth treatment group (GIV) was composed of 5 rats that were orally administered with both risperidone at the low dose of 1 mg/kg body weight/day and the root extract of Costus speciosus at 2 mg/kg body weight/day.
The fifth treatment group (GV) was composed of 5 rats that were orally administered with risperidone at a high dose of 2 mg/kg body weight/day.
The sixth treatment group (GVI) was composed of 5 rats that were orally administered with both the high dose of risperidone at 2 mg/kg body weight/day and the root extract of Costus speciosus at 2 mg/kg body weight/day. […]
[5] abbreviates: GV: risperidone high dose 2 mg/kg/day oral.

With `Cc1nc2n(c(=O)c1CCN1CCC(c3noc4cc(F)ccc34)CC1)CCCC2` [risperidone, Risperidone], the body weight result is given as “significant increase in body weight” in data set [1] (GIII: risperidone low dose 1 mg/kg/day oral, vs GI or GII) and “significant increase in body weight” in data set [1] (GV: risperidone high dose 2 mg/kg/day oral, vs GIII (low dose risperidone)). Further, the testes weight entry in data set [2] (GIII: risperidone low dose 1 mg/kg/day oral) and in data set [2] (setting [5]) was “insignificant reduction in testes weight” each time. The “plasma level of testosterone” value in data set [3] (GIII: risperidone low dose 1 mg/kg/day oral, vs GIV (low dose + root extract)) is “insignificant reduction in the plasma level of testosterone”; in data set [3] (GV: risperidone high dose 2 mg/kg/day oral, vs GVI (high dose + root extract)) it was “insignificant reduction in the plasma level of testosterone”. In addition, the “histological findings in the testis” value in data set [4] (GIII: risperidone low dose 1 mg/kg/day oral, vs GI) was “abnormal, disorganized, and atrophied seminiferous tubules (ST), disorganization of germinal epithelium, a loss of spermatogenic cell types (pointed by arrows), and a massive and wide-spread destruction of germ cells”; in data set [4] (setting [5]), “degeneration of the germinal epithelium lining (arrowheads), vacuolation of seminiferous tubules (ST) (*), and intertubular oedema”.

For the origin of these results see US10383910B2, “Methods of increasing fertility of a male subject with costus speciosus extract” (priority 2016, dated 2019).
